Assay: recombinant UMI read abundance after kanamycin selection (control-corrected) (log10(CPM+1)); higher = more efficient recombination; extreme values may be limits of the assay; sequences stand for … in AGTGCAGAGAAAATCGGCCAGTTTTCTCTGCCTGCAGTCCGCATGCCGTGGGACCCCTTGGGTTCTAACCTGTTGCCTAGATTTATGCAGCGGACTGCCTTTCTCCCAAAGTGATAAACCGG…AGGTTGGTTTCACT; site = the 11-nt donor
Outline: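 After plating on IPTG (0.07 mM) plus kanamycin, or unselected, in two replicates, recombinant UMIs were PCR-amplified across the donor–target junction and sequenced. The cells were Escherichia coli co-electroporated with a UMI-tagged donor and donor-binding-loop pair library and a target plasmid with a fixed target and T7-inducible IS621 bridge recombinase. Values are log10(CPM+1), with CPM averaged over replicates and scaled by control-derived factors.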
With “CCCCGTACATGGACCGGTTTTCCCGGTAATCCGTATTTGAT (site CCCCGTACTAT)” the “recombinant UMI read abundance (log10)” value was 1.45.
For “CCCCGTACATGGACCGGTTTTCCCGGTAATCCGTATTTGCT (site CACCGTACTAG)”, the “recombinant UMI read abundance (log10)” value was 0.00449.
With “CCCCGTACATGGACCGGTTTTCCCGGTAATCCGTATTTGCT (site CCCCGTACTAG)” the “recombinant UMI read abundance (log10)” value was 1.56.
In the case of “CCCCGTACATGGACCGGTTTTCCCGGTAATCCGTATTTGCT (site CGCCGTACTAG)”, the “recombinant UMI read abundance (log10)” value is reported as 0.
With “CCCCGTACATGGACCGGTTTTCCCGGTAATCCGTATTTGCT (site CTCCGTACTAG)” the “recombinant UMI read abundance (log10)” value was 0.542.
With “CCCCTCACATGGACCGGTTTTCCCGGTAATCCGTATTTGTA (site CCCCACACTTA)” the “recombinant UMI read abundance (log10)” value was 0.0243.
In the case of “CCCCTCACATGGACCGGTTTTCCCGGTAATCCGTATTTGTA (site CCCCCCACTTA)”, the “recombinant UMI read abundance (log10)” value is reported as 0.274.
With “CCCCTCACATGGACCGGTTTTCCCGGTAATCCGTATTTGTA (site CCCCGCACTTA)” the “recombinant UMI read abundance (log10)” value was 0.0202.
In the case of “CCCCTCACATGGACCGGTTTTCCCGGTAATCCGTATTTGTA (site CCCCTCACTTA)”, the “recombinant UMI read abundance (log10)” value is reported as 1.15.
With “CCCCTCGCATGGACCGGTTTTCCCGGTAATCCGTATTTGAA (site CCCCTCGCTTT)” the “recombinant UMI read abundance (log10)” value was 0.801.
With “CCCCTCTCATGGACCGGTTTTCCCGGTAATCCGTATTTGGG (site CCCATCTCTCC)” the “recombinant UMI read abundance (log10)” value was 0.
With “CCCCTCTCATGGACCGGTTTTCCCGGTAATCCGTATTTGGG (site CCCCTCTCTCC)” the “recombinant UMI read abundance (log10)” value was 0.0198.
With “CCCCTCTCATGGACCGGTTTTCCCGGTAATCCGTATTTGGG (site CCCGTCTCTCC)” the “recombinant UMI read abundance (log10)” value was 0.00587.
With “CCCCTCTCATGGACCGGTTTTCCCGGTAATCCGTATTTGGG (site CCCTTCTCTCC)” the “recombinant UMI read abundance (log10)” value was 0.
For “CCCCTTACATGGACCGGTTTTCCCGGTAATCCGTATTTGGT (site CCCCTTACTAC)”, the “recombinant UMI read abundance (log10)” value was 0.238.
For “CCCGACCCATGGACCGGTTTTCCCGGTAATCCGTATTTGAG (site CCCGACCCTCT)”, the “recombinant UMI read abundance (log10)” value was 0.0182.
With “CCCGAGTCATGGACCGGTTTTCCCGGTAATCCGTATTTGCC (site CCCGAGTCTGG)” the “recombinant UMI read abundance (log10)” value was 0.938.
For “CCCGGCCCATGGACCGGTTTTCCCGGTAATCCGTATTTGCA (site CCCGGACCTTG)”, the “recombinant UMI read abundance (log10)” value was 0.00734.
For “CCCGGCCCATGGACCGGTTTTCCCGGTAATCCGTATTTGCA (site CCCGGCCCTTG)”, the “recombinant UMI read abundance (log10)” value was 0.
With “CCCGGCCCATGGACCGGTTTTCCCGGTAATCCGTATTTGCA (site CCCGGGCCTTG)” the “recombinant UMI read abundance (log10)” value was 0.
For “CCCGGCCCATGGACCGGTTTTCCCGGTAATCCGTATTTGCA (site CCCGGTCCTTG)”, the “recombinant UMI read abundance (log10)” value was 0.0145.
For “CCCGGTTCATGGACCGGTTTTCCCGGTAATCCGTATTTGCA (site CCCGGTACTTG)”, the “recombinant UMI read abundance (log10)” value was 0.
With “CCCGGTTCATGGACCGGTTTTCCCGGTAATCCGTATTTGCA (site CCCGGTCCTTG)” the “recombinant UMI read abundance (log10)” value was 0.
With “CCCGGTTCATGGACCGGTTTTCCCGGTAATCCGTATTTGCA (site CCCGGTGCTTG)” the “recombinant UMI read abundance (log10)” value was 0.0148.
In the case of “CCCGGTTCATGGACCGGTTTTCCCGGTAATCCGTATTTGCA (site CCCGGTTCTTG)”, the “recombinant UMI read abundance (log10)” value is reported as 1.83.
With “CCCGTACCATGGACCGGTTTTCCCGGTAATCCGTATTTGCT (site CCCGTACCTAG)” the “recombinant UMI read abundance (log10)” value was 0.
For “CCCGTCGCATGGACCGGTTTTCCCGGTAATCCGTATTTGCC (site CCCGTCGCTGG)”, the “recombinant UMI read abundance (log10)” value was 1.45.
In the case of “CCCGTCTCATGGACCGGTTTTCCCGGTAATCCGTATTTGGG (site CCCATCTCTCC)”, the “recombinant UMI read abundance (log10)” value is reported as 0.0267.
With “CCCGTCTCATGGACCGGTTTTCCCGGTAATCCGTATTTGGG (site CCCCTCTCTCC)” the “recombinant UMI read abundance (log10)” value was 0.0424.
In the case of “CCCGTCTCATGGACCGGTTTTCCCGGTAATCCGTATTTGGG (site CCCGTCTCTCC)”, the “recombinant UMI read abundance (log10)” value is reported as 0.0026.
With “CCCGTCTCATGGACCGGTTTTCCCGGTAATCCGTATTTGGG (site CCCTTCTCTCC)” the “recombinant UMI read abundance (log10)” value was 0.018.
For “CCCTAACCATGGACCGGTTTTCCCGGTAATCCGTATTTGCT (site CCCTAACCTAG)”, the “recombinant UMI read abundance (log10)” value was 0.
For “CCCTACTCATGGACCGGTTTTCCCGGTAATCCGTATTTGGG (site CCCTACTCTCC)”, the “recombinant UMI read abundance (log10)” value was 0.346.
For “CCCTACTCATGGACCGGTTTTCCCGGTAATCCGTATTTGGG (site CCCTCCTCTCC)”, the “recombinant UMI read abundance (log10)” value was 0.00345.
For “CCCTACTCATGGACCGGTTTTCCCGGTAATCCGTATTTGGG (site CCCTGCTCTCC)”, the “recombinant UMI read abundance (log10)” value was 0.0112.
In the case of “CCCTACTCATGGACCGGTTTTCCCGGTAATCCGTATTTGGG (site CCCTTCTCTCC)”, the “recombinant UMI read abundance (log10)” value is reported as 0.00875.
In the case of “CCCTAGCCATGGACCGGTTTTCCCGGTAATCCGTATTTGGC (site CCCTAGCCTGA)”, the “recombinant UMI read abundance (log10)” value is reported as 0.
With “CCCTAGCCATGGACCGGTTTTCCCGGTAATCCGTATTTGGC (site CCCTAGCCTGC)” the “recombinant UMI read abundance (log10)” value was 0.
In the case of “CCCTAGCCATGGACCGGTTTTCCCGGTAATCCGTATTTGGC (site CCCTAGCCTGG)”, the “recombinant UMI read abundance (log10)” value is reported as 0.
With “CCCTAGCCATGGACCGGTTTTCCCGGTAATCCGTATTTGGC (site CCCTAGCCTGT)” the “recombinant UMI read abundance (log10)” value was 0.
With “CCCTATCCATGGACCGGTTTTCCCGGTAATCCGTATTTGAC (site CCCTATCCTGT)” the “recombinant UMI read abundance (log10)” value was 0.
In the case of “CCCTATTCATGGACCGGTTTTCCCGGTAATCCGTATTTGCT (site CCCTATTCTAG)”, the “recombinant UMI read abundance (log10)” value is reported as 1.7.
For “CCCTCCTCATGGACCGGTTTTCCCGGTAATCCGTATTTGCC (site CACTCCTCTGG)”, the “recombinant UMI read abundance (log10)” value was 0.544.
In the case of “CCCTCCTCATGGACCGGTTTTCCCGGTAATCCGTATTTGCC (site CCCTCCTCTGG)”, the “recombinant UMI read abundance (log10)” value is reported as 2.25.
For “CCCTCCTCATGGACCGGTTTTCCCGGTAATCCGTATTTGCC (site CGCTCCTCTGG)”, the “recombinant UMI read abundance (log10)” value was 0.
With “CCCTCCTCATGGACCGGTTTTCCCGGTAATCCGTATTTGCC (site CTCTCCTCTGG)” the “recombinant UMI read abundance (log10)” value was 0.448.
In the case of “CCCTCGCCATGGACCGGTTTTCCCGGTAATCCGTATTTGCC (site CCCTAGCCTGG)”, the “recombinant UMI read abundance (log10)” value is reported as 0.
In the case of “CCCTCGCCATGGACCGGTTTTCCCGGTAATCCGTATTTGCC (site CCCTCGCCTGG)”, the “recombinant UMI read abundance (log10)” value is reported as 0.
With “CCCTCGCCATGGACCGGTTTTCCCGGTAATCCGTATTTGCC (site CCCTGGCCTGG)” the “recombinant UMI read abundance (log10)” value was 0.
With “CCCTCGCCATGGACCGGTTTTCCCGGTAATCCGTATTTGCC (site CCCTTGCCTGG)” the “recombinant UMI read abundance (log10)” value was 0.011.
In the case of “CCCTCGGCATGGACCGGTTTTCCCGGTAATCCGTATTTGCT (site CCCTCGGCTAG)”, the “recombinant UMI read abundance (log10)” value is reported as 0.0794.
With “CCCTGTTCATGGACCGGTTTTCCCGGTAATCCGTATTTGGG (site CCCTGTTCTCC)” the “recombinant UMI read abundance (log10)” value was 0.00741.
In the case of “CCCTTCGCATGGACCGGTTTTCCCGGTAATCCGTATTTGGG (site CCCTTCACTCC)”, the “recombinant UMI read abundance (log10)” value is reported as 0.0167.
With “CCCTTCGCATGGACCGGTTTTCCCGGTAATCCGTATTTGGG (site CCCTTCCCTCC)” the “recombinant UMI read abundance (log10)” value was 0.
For “CCCTTCGCATGGACCGGTTTTCCCGGTAATCCGTATTTGGG (site CCCTTCGCTCC)”, the “recombinant UMI read abundance (log10)” value was 0.0148.
For “CCCTTCGCATGGACCGGTTTTCCCGGTAATCCGTATTTGGG (site CCCTTCTCTCC)”, the “recombinant UMI read abundance (log10)” value was 0.0112.
For “CCGAAAGCATGGACCGGTTTTCCCGGTAATCCGTATTTGAT (site CCAAAAGCTAT)”, the “recombinant UMI read abundance (log10)” value was 0.501.
With “CCGAAAGCATGGACCGGTTTTCCCGGTAATCCGTATTTGAT (site CCCAAAGCTAT)” the “recombinant UMI read abundance (log10)” value was 0.
In the case of “CCGAAAGCATGGACCGGTTTTCCCGGTAATCCGTATTTGAT (site CCGAAAGCTAT)”, the “recombinant UMI read abundance (log10)” value is reported as 0.975.
For “CCGAAAGCATGGACCGGTTTTCCCGGTAATCCGTATTTGAT (site CCTAAAGCTAT)”, the “recombinant UMI read abundance (log10)” value was 0.0026.
In the case of “CCGAAGACATGGACCGGTTTTCCCGGTAATCCGTATTTGGC (site CCGAAGACTGC)”, the “recombinant UMI read abundance (log10)” value is reported as 0.
For “CCGAATCCATGGACCGGTTTTCCCGGTAATCCGTATTTGTA (site CCGAATCCTTA)”, the “recombinant UMI read abundance (log10)” value was 0.
For “CCGAATCCATGGACCGGTTTTCCCGGTAATCCGTATTTGTA (site CGGAATCCTAA)”, the “recombinant UMI read abundance (log10)” value was 0.00532.
In the case of “CCGAATGCATGGACCGGTTTTCCCGGTAATCCGTATTTGAT (site CCGAATGCTAT)”, the “recombinant UMI read abundance (log10)” value is reported as 0.919.
For “CCGAATTCATGGACCGGTTTTCCCGGTAATCCGTATTTGTT (site CCGAATTCTAA)”, the “recombinant UMI read abundance (log10)” value was 0.
With “CCGAATTCATGGACCGGTTTTCCCGGTAATCCGTATTTGTT (site CGGAATCCTAA)” the “recombinant UMI read abundance (log10)” value was 0.00782.
For “CCGAGCGCATGGACCGGTTTTCCCGGTAATCCGTATTTGAA (site CCGAGCGCTTT)”, the “recombinant UMI read abundance (log10)” value was 0.998.
In the case of “CCGAGCTCATGGACCGGTTTTCCCGGTAATCCGTATTTGTA (site CCGAGCTCTTA)”, the “recombinant UMI read abundance (log10)” value is reported as 0.496.
In the case of “CCGAGGCCATGGACCGGTTTTCCCGGTAATCCGTATTTGGC (site CCGAGGCCTGC)”, the “recombinant UMI read abundance (log10)” value is reported as 0.
In the case of “CCGATAGCATGGACCGGTTTTCCCGGTAATCCGTATTTGTG (site CCGATAGCTCA)”, the “recombinant UMI read abundance (log10)” value is reported as 0.0444.
For “CCGATAGCATGGACCGGTTTTCCCGGTAATCCGTATTTGTG (site CCGCTAGCTCA)”, the “recombinant UMI read abundance (log10)” value was 0.0063.
In the case of “CCGATAGCATGGACCGGTTTTCCCGGTAATCCGTATTTGTG (site CCGGTAGCTCA)”, the “recombinant UMI read abundance (log10)” value is reported as 0.00966.
For “CCGATAGCATGGACCGGTTTTCCCGGTAATCCGTATTTGTG (site CCGTTAGCTCA)”, the “recombinant UMI read abundance (log10)” value was 0.0148.
With “CCGATATCATGGACCGGTTTTCCCGGTAATCCGTATTTGGC (site CCGATATCTGC)” the “recombinant UMI read abundance (log10)” value was 0.68.
For “CCGATCTCATGGACCGGTTTTCCCGGTAATCCGTATTTGAG (site CCGATCTCTCT)”, the “recombinant UMI read abundance (log10)” value was 0.00289.
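Note: IS621 bridge recombinase in Escherichia coli cells against a fixed T5 target plasmid.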
